From the kinase profiling compilation of Christmann-Franck et al. (2016)

Legend:
Experiment in all cases: KINOMEscan competition binding
Conditions in all cases: compound 10.0 µM
MAP2K1 (human) = MAP2K1 (human) (UniProt Q02750)
PKMYT1 (human) = PKMYT1 (human) (UniProt Q99640)
IRAK4 (human) = IRAK4 (human) (UniProt Q9NWZ3)
ADCK3 (human) = ADCK3 (human) (UniProt Q8NI60)
PTK6 (human) = PTK6 (human) (UniProt Q13882)
SBK1 (human) = SBK1 (human) (UniProt Q52WX2)
PRKCQ (human) = PRKCQ (human) (UniProt Q04759)
TAOK2 (human) = TAOK2 (human) (UniProt Q9UL54)
ROCK2 (human) = ROCK2 (human) (UniProt O75116)
MYLK2 (human) = MYLK2 (human) (UniProt Q9H1R3)
MAPK9 (human) = MAPK9 (human) (UniProt P45984)
DAPK1 (human) = DAPK1 (human) (UniProt P53355)
MELK (human) = MELK (human) (UniProt Q14680)
CDKL5 (human) = CDKL5 (human) (UniProt O76039)
DCLK3 (human) = DCLK3 (human) (UniProt Q9C098)
FER (human) = FER (human) (UniProt P16591)
ABL2 (human) = ABL2 (human) (UniProt P42684)
MAPK4 (human) = MAPK4 (human) (UniProt P31152)
STK32B (human) = STK32B (human) (UniProt Q9NY57)
STK32C (human) = STK32C (human) (UniProt Q86UX6)
INSRR (human) = INSRR (human) (UniProt P14616)
CDK13 (human) = CDK13 (human) (UniProt Q14004)
ZAP70 (human) = ZAP70 (human) (UniProt P43403)
FLT1 (human) = FLT1 (human) (UniProt P17948)
OXSR1 (human) = OXSR1 (human) (UniProt O95747)
SIK1 (human) = SIK1 (human) (UniProt P57059)
MAP3K10 (human) = MAP3K10 (human) (UniProt Q02779)
MAPKAPK2 (human) = MAPKAPK2 (human) (UniProt P49137)
EPHA6 (human) = EPHA6 (human) (UniProt Q9UF33)
PAK6 (human) = PAK6 (human) (UniProt Q9NQU5)
CSNK2A2 (human) = CSNK2A2 (human) (UniProt P19784)
PIP5K1C (human) = PIP5K1C (human) (UniProt O60331)
RET (human) = RET (human) (UniProt P07949)
CDK18 (human) = CDK18 (human) (UniProt Q07002)
PAK4 (human) = PAK4 (human) (UniProt O96013)
TGFBR1 (human) = TGFBR1 (human) (UniProt P36897)
MYLK3 (human) = MYLK3 (human) (UniProt Q32MK0)
HIPK4 (human) = HIPK4 (human) (UniProt Q8NE63)
[1] = tested on: EGFR (human), P00533 [T790M/L858R]
SRC (human) = SRC (human) (UniProt P12931)

Sequence of PAK6 (human) (Q9NQU5 whole entry, looked up): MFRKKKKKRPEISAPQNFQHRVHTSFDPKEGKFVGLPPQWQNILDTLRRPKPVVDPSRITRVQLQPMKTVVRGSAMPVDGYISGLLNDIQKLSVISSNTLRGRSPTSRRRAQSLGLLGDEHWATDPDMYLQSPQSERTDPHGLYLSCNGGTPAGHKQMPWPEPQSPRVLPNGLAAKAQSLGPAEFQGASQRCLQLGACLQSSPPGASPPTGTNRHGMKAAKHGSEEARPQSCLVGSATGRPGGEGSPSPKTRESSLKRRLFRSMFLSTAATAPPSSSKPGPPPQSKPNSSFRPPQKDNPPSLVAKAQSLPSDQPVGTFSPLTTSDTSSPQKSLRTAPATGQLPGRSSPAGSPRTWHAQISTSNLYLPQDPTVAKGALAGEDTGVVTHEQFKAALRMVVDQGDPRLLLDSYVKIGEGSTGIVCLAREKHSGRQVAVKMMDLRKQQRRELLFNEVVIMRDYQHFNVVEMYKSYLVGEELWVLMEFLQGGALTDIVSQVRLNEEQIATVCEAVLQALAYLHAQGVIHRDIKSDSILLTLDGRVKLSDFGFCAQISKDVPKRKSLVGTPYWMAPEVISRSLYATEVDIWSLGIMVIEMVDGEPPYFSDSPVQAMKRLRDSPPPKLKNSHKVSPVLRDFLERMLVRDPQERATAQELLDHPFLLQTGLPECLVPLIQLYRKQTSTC
Sequence of STK32C (human) (Q86UX6 whole entry, looked up): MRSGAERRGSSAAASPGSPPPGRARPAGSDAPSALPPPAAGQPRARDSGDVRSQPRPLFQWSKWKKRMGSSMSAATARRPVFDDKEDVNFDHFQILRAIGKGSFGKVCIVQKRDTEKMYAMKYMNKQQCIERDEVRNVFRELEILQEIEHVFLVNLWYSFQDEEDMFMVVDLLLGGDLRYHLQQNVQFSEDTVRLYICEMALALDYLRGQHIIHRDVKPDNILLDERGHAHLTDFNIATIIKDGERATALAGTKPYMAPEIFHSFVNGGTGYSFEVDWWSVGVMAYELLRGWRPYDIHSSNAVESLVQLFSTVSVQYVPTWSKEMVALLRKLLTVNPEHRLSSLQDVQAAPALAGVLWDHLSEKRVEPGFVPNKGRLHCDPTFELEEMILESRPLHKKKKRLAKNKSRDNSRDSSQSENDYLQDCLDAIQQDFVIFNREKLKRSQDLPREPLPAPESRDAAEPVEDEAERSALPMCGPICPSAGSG
Sequence of MYLK2 (human) (Q9H1R3 whole entry, looked up): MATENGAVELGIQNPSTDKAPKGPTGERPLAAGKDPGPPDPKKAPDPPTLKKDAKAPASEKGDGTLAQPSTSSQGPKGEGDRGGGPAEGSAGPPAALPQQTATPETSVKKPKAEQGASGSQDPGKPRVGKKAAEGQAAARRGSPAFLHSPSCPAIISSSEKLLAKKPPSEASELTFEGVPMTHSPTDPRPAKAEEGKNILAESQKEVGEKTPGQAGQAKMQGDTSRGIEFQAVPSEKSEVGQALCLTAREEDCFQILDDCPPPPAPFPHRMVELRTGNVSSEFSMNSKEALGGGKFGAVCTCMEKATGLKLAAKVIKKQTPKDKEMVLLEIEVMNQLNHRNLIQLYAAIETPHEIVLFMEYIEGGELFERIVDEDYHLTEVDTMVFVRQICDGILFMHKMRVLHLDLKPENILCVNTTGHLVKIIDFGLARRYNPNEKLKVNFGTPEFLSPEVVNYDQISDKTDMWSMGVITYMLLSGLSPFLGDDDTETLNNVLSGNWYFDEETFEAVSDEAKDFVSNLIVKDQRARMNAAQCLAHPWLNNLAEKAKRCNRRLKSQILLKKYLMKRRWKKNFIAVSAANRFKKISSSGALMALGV
Sequence of MAP2K1 (human) (Q02750 whole entry, looked up): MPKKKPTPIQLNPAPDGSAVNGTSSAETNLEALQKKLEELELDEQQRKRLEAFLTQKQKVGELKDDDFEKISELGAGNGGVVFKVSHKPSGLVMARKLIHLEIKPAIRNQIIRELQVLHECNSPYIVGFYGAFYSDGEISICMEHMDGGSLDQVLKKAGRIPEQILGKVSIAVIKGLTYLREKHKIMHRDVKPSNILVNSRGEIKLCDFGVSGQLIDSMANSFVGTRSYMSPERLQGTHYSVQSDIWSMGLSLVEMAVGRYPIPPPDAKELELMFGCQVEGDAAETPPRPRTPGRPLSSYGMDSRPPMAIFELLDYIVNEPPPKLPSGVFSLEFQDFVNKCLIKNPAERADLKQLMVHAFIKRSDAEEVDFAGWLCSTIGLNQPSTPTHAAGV
Sequence of CDKL5 (human) (O76039 whole entry, looked up): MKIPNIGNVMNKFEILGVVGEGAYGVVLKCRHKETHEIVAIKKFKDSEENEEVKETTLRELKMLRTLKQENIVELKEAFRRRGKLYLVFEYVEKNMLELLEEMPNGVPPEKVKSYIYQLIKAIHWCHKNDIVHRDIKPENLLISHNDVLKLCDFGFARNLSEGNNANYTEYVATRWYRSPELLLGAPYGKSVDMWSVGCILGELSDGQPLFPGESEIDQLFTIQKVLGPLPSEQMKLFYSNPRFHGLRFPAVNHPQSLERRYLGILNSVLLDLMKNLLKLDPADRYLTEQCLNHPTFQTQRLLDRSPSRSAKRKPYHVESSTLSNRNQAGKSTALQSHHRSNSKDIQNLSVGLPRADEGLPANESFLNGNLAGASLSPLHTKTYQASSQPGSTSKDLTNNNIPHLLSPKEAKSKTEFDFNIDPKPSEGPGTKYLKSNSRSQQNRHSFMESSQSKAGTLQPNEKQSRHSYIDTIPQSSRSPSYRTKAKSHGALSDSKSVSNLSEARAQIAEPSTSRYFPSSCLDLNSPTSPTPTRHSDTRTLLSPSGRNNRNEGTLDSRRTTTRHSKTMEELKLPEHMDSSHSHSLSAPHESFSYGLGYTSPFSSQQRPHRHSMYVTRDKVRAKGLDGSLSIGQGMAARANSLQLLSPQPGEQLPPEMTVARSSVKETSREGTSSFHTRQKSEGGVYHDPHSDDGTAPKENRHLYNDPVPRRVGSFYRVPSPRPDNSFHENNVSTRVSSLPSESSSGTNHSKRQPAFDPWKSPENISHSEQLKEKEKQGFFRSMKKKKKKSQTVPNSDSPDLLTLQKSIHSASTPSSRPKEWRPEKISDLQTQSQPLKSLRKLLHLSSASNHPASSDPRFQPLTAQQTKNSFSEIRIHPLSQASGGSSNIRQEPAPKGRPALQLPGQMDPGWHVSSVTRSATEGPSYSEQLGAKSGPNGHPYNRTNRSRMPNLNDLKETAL
Sequence of MELK (human) (Q14680 whole entry, looked up): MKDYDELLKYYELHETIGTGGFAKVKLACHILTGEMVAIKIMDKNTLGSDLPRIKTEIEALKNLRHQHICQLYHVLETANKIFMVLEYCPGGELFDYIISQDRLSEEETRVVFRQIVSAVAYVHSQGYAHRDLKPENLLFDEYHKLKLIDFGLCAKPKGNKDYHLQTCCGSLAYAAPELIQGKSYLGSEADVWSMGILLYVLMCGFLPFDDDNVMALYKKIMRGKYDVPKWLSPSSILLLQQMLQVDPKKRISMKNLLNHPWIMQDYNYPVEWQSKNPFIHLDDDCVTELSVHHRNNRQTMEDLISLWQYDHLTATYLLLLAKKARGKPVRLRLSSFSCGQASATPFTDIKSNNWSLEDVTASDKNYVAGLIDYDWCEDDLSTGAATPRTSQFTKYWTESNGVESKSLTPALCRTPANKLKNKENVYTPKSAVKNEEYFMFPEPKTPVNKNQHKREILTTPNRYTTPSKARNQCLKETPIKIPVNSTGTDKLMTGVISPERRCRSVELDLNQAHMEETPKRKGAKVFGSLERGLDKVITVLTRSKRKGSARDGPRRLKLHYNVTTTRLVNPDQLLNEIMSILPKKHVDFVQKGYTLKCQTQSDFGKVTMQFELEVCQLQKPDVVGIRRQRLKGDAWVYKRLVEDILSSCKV
Sequence of MYLK3 (human) (Q32MK0 whole entry, looked up): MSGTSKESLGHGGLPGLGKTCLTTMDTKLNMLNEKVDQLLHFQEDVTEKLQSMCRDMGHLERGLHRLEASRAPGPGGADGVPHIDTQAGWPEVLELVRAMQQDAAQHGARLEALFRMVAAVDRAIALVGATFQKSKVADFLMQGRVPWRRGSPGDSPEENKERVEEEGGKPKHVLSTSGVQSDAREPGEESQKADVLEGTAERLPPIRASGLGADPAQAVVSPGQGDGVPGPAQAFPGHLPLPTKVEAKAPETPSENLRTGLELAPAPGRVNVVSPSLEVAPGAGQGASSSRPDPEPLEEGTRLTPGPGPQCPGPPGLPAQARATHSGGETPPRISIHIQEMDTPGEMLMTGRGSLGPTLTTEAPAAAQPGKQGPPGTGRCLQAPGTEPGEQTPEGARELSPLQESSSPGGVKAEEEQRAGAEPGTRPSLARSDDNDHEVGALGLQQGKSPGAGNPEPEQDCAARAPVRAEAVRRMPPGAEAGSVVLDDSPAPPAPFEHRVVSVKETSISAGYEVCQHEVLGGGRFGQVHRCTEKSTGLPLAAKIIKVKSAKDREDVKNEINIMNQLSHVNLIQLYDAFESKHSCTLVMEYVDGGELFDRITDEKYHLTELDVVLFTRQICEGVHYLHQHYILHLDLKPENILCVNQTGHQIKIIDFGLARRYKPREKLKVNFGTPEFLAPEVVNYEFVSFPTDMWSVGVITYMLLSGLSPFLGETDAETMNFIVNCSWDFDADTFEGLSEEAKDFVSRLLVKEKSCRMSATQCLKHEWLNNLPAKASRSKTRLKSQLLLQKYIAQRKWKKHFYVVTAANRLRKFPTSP
Sequence of CSNK2A2 (human) (P19784 whole entry, looked up): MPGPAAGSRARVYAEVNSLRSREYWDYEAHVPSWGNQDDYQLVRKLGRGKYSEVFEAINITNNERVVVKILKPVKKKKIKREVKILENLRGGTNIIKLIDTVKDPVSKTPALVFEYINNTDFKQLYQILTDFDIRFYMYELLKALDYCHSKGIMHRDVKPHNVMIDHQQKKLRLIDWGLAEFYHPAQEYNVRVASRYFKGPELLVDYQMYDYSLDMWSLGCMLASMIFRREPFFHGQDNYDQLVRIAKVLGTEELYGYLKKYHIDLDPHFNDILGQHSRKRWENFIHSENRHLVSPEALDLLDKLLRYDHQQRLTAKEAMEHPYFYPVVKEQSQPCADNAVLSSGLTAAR

| SMILES | kinase still bound, per cent of control (MAP2K1 (human)) | kinase still bound, per cent of control (PKMYT1 (human)) | kinase still bound, per cent of control (ADCK3 (human)) | kinase still bound, per cent of control (PTK6 (human)) | kinase still bound, per cent of control (SBK1 (human)) | kinase still bound, per cent of control (PRKCQ (human)) | kinase still bound, per cent of control (ROCK2 (human)) | kinase still bound, per cent of control (MYLK2 (human)) | kinase still bound, per cent of control (MAPK9 (human)) | kinase still bound, per cent of control (DAPK1 (human)) | kinase still bound, per cent of control (MELK (human)) | kinase still bound, per cent of control (CDKL5 (human)) | kinase still bound, per cent of control (DCLK3 (human)) | kinase still bound, per cent of control (FER (human)) | kinase still bound, per cent of control (ABL2 (human)) | kinase still bound, per cent of control (MAPK4 (human)) | kinase still bound, per cent of control (STK32B (human)) | kinase still bound, per cent of control (STK32C (human)) | kinase still bound, per cent of control (INSRR (human)) | kinase still bound, per cent of control (ZAP70 (human)) | further results |
| --- | --- | --- | --- | --- | --- | --- | --- | --- | --- | --- | --- | --- | --- | --- | --- | --- | --- | --- | --- | --- | --- |
| CNC(=O)c1cc(Oc2ccc(NC(=O)Nc3ccc(Cl)c(C(F)(F)F)c3)cc2)ccn1 | 100% | 94% | 100% | 100% | 89% | 84% | 88% | 43% | 19% | 99% | 100% | 56% | 75% | 87% | 35% | 100% | 100% | 100% | 97% | 100% | kinase still bound, per cent of control (IRAK4 (human)): 95%; kinase still bound, per cent of control (TAOK2 (human)): 1.6%; kinase still bound, per cent of control (CDK13 (human)): 86%; kinase still bound, per cent of control (FLT1 (human)): 6.6%; kinase still bound, per cent of control (OXSR1 (human)): 100%; kinase still bound, per cent of control (SIK1 (human)): 100%; kinase still bound, per cent of control (MAP3K10 (human)): 73%; kinase still bound, per cent of control (MAPKAPK2 (human)): 100%; kinase still bound, per cent of control (EPHA6 (human)): 9.2%; kinase still bound, per cent of control (PAK6 (human)): 91%; kinase still bound, per cent of control (CSNK2A2 (human)): 100%; kinase still bound, per cent of control (PIP5K1C (human)): 87%; kinase still bound, per cent of control (RET (human)): 0.05%; kinase still bound, per cent of control (CDK18 (human)): 70%; kinase still bound, per cent of control (PAK4 (human)): 91%; kinase still bound, per cent of control (TGFBR1 (human)): 100% |
| CCN(CC)CCCCNc1ncc2c(n1)N(C)C(=O)N(c1c(Cl)c(OC)cc(OC)c1Cl)C2 | 100% | 100% | 100% | 100% | 100% | 100% | 100% | 100% | 100% | 100% | 100% | 100% | 100% | 100% | 100% | 100% | 100% | 100% | 100% | 100% | kinase still bound, per cent of control (MYLK3 (human)): 100%; kinase still bound, per cent of control (HIPK4 (human)): 100%; kinase still bound, per cent of control [1]: 100%; kinase still bound, per cent of control (FLT1 (human)): 5.6%; kinase still bound, per cent of control (OXSR1 (human)): 100%; kinase still bound, per cent of control (SIK1 (human)): 100%; kinase still bound, per cent of control (MAP3K10 (human)): 100%; kinase still bound, per cent of control (MAPKAPK2 (human)): 100%; kinase still bound, per cent of control (EPHA6 (human)): 100%; kinase still bound, per cent of control (PAK6 (human)): 100%; kinase still bound, per cent of control (CSNK2A2 (human)): 100%; kinase still bound, per cent of control (RET (human)): 100%; kinase still bound, per cent of control (CDK18 (human)): 100%; kinase still bound, per cent of control (PAK4 (human)): 100%; kinase still bound, per cent of control (SRC (human)): 100%; kinase still bound, per cent of control (TGFBR1 (human)): 100% |
| COc1cc(N2CCN(C)CC2)ccc1Nc1ncc2c(n1)N(C)c1ccccc1C(=O)N2C | 100% | 100% | 100% | 7.6% | 8.9% | 100% | 100% | 100% | 100% | 100% | 100% | 100% | 16% | 32% | 100% | 100% | 100% | 100% | 100% | 100% | kinase still bound, per cent of control (MYLK3 (human)): 100%; kinase still bound, per cent of control (HIPK4 (human)): 100%; kinase still bound, per cent of control [1]: 100%; kinase still bound, per cent of control (FLT1 (human)): 100%; kinase still bound, per cent of control (OXSR1 (human)): 100%; kinase still bound, per cent of control (SIK1 (human)): 100%; kinase still bound, per cent of control (MAP3K10 (human)): 100%; kinase still bound, per cent of control (MAPKAPK2 (human)): 100%; kinase still bound, per cent of control (EPHA6 (human)): 100%; kinase still bound, per cent of control (PAK6 (human)): 100%; kinase still bound, per cent of control (CSNK2A2 (human)): 100%; kinase still bound, per cent of control (RET (human)): 100%; kinase still bound, per cent of control (CDK18 (human)): 100%; kinase still bound, per cent of control (PAK4 (human)): 100%; kinase still bound, per cent of control (SRC (human)): 100%; kinase still bound, per cent of control (TGFBR1 (human)): 100% |
| C[C@@H](Oc1cc(-c2cnn(C3CCNCC3)c2)cnc1N)c1c(Cl)ccc(F)c1Cl | 64% | 100% | 53% | 56% | 6% | 88% | 8% | 73% | 82% | 74% | 47% | 25% | 42% | 2% | 0.85% | 84% | 100% | 100% | 0.25% | 29% | kinase still bound, per cent of control (IRAK4 (human)): 24%; kinase still bound, per cent of control (TAOK2 (human)): 0.9%; kinase still bound, per cent of control (MYLK3 (human)): 100%; kinase still bound, per cent of control (HIPK4 (human)): 15%; kinase still bound, per cent of control (CDK13 (human)): 24%; kinase still bound, per cent of control (FLT1 (human)): 25%; kinase still bound, per cent of control (SIK1 (human)): 24%; kinase still bound, per cent of control (MAP3K10 (human)): 79%; kinase still bound, per cent of control (MAPKAPK2 (human)): 100%; kinase still bound, per cent of control (EPHA6 (human)): 0.7%; kinase still bound, per cent of control (PAK6 (human)): 72%; kinase still bound, per cent of control (CSNK2A2 (human)): 55%; kinase still bound, per cent of control (PIP5K1C (human)): 63%; kinase still bound, per cent of control (CDK18 (human)): 94%; kinase still bound, per cent of control (PAK4 (human)): 80%; kinase still bound, per cent of control (SRC (human)): 0.55%; kinase still bound, per cent of control (TGFBR1 (human)): 4% |
